Laboratory results published in patent US9090600B2, “Fungicidal 4-substituted-3-{phenyl[(heterocyclylmethoxy)imino]methyl}-1,2,4-oxadizol-5(4H)-one derivatives” (BAYER INTELLECTUAL PROPERTY GMBH, priority 2011, dated 2015).
Marks after values point to notes of the source that are not given here.

details: pH 2.7

Compound	LogP
CC(C)CSC(=O)Nc1cccc(CO/N=C(/c2ccccc2)c2noc(=O)n2C)n1 [Example 241]	4.39 [a]
C#CC(C)OC(=O)Nc1cccc(CO/N=C(/c2ccccc2)c2noc(=O)n2C)n1 (stereo not shown) [Example 242]	3.41 [a]
Cn1c(C(=NOCc2cccc(NC(=O)OC(C)(C)C)n2)c2cccc(F)c2F)noc1=O [Example 249]	3.94 [a]
Cc1ccc(C(=NOCc2csc(NC(=O)Cc3ccccc3)n2)c2noc(=O)n2C)cc1 [Example 252]	3.65 [a]
Cn1c(C(=NOCc2cccc(NC(=O)OC(C)(C)C)n2)c2cccc(F)c2F)noc1=O [Example 254]	4.01 [a]
Cn1c(C(=NOCc2cccc(N)n2)c2ccc(F)cc2)noc1=O [Example 259]	1.41 [a]
CC(Oc1ccc(Cl)cc1)C(=O)Nc1cccc(CON=C(c2ccccc2)c2noc(=O)n2C)n1 (stereo not shown) [Example 260]	4.35 [a]
Cn1c(C(=NOCc2cccc(NC(=O)COc3ccccc3Br)n2)c2ccccc2)noc1=O [Example 269]	4.25 [a]
CC(C)CC(C)OC(=O)Nc1cccc(CO/N=C(/c2ccccc2)c2noc(=O)n2C)n1 (stereo not shown) [Example 273]	4.68 [a]
Cn1c(/C(=N\OCc2cccc(NC(=O)COc3ccc(Cl)cc3Cl)n2)c2ccccc2)noc1=O [Example 274]	4.61 [a]
CC(Oc1ccccc1Br)C(=O)Nc1cccc(CO/N=C(/c2ccccc2)c2noc(=O)n2C)n1 (stereo not shown) [Example 275]	4.53 [a]
Cc1cc(Cl)ccc1OCCCC(=O)Nc1cccc(CO/N=C(/c2ccccc2)c2noc(=O)n2C)n1 [Example 277]	4.73 [a]
CCCOC(=S)Nc1cccc(CO/N=C(/c2ccccc2)c2noc(=O)n2C)n1 [Example 283]	4.11 [a]
Cc1ccc(OC(C)C(=O)Nc2cccc(CO/N=C(/c3ccccc3)c3noc(=O)n3C)n2)cc1 (stereo not shown) [Example 287]	4.35 [a]
Cn1c(/C(=N\OCc2cccc(NC(=O)OCCCC(F)(F)C(F)(F)F)n2)c2ccccc2)noc1=O [Example 293]	4.29 [a]
Cn1c(/C(=N\OCc2cccc(NC(=O)c3ccccc3Oc3ccccc3)n2)c2ccccc2)noc1=O [Example 294]	4.76 [a]
Cn1c(/C(=N\OCc2cccc(NC(=O)OCCc3ccccc3Br)n2)c2ccccc2)noc1=O [Example 298]	4.66 [a]
CC(OC(=O)Nc1cccc(CO/N=C(/c2ccccc2)c2noc(=O)n2C)n1)C(C)(C)C (stereo not shown) [Example 305]	4.56 [a]
Cn1c(/C(=N\OCc2cccc(NC(=O)COc3cccc(F)c3)n2)c2ccccc2)noc1=O [Example 311]	3.78 [a]
Cn1c(/C(=N\OCc2csc(NC(=O)COc3cccc(Br)c3)n2)c2ccccc2)noc1=O [Example 314]	3.94 [a]
Cn1c(/C(=N\OCc2csc(NC(=O)COc3ccccc3)n2)c2ccccc2)noc1=O [Example 315]	3.51 [a]
Cc1ccc(/C(=N/OCc2csc(NC(=O)C(C)Oc3ccccc3)n2)c2noc(=O)n2C)cc1 (stereo not shown) [Example 319]	3.99 [a]
CCCCSC(=O)Nc1cccc(CO/N=C(/c2ccccc2)c2noc(=O)n2C)n1 [Example 320]	4.41 [a]
Cc1ccc(/C(=N/OCc2csc(N)n2)c2noc(=O)n2C)cc1 [Example 326]	1.82 [a]
COc1ccc(/C(=N/OCc2cccc(NC(=O)OC(C)(C)C)n2)c2noc(=O)[nH]2)cc1 [Example 333]	3.69 [a]
Cc1cccc(OCC(=O)Nc2cccc(CO/N=C(/c3ccccc3)c3noc(=O)n3C)n2)c1 [Example 334]	4.07 [a]

Compound	LogP
CC(Oc1ccccc1)C(=O)Nc1nc(CO/N=C(/c2cccc(F)c2)c2noc(=O)n2C)cs1 (stereo not shown) [Example 338]	3.76 [a]
Cc1ccc(C(=NOCc2csc(NC(=O)OC3CCCCC3)n2)c2noc(=O)n2C)cc1 [Example 339]	4.48 [a]
Cn1c(/C(=N\OCc2cccc(NC(=O)OCCc3ccc(Cl)cc3)n2)c2ccccc2)noc1=O [Example 349]	4.53 [a]
CCCCC(C)(C)OC(=O)Nc1cccc(CO/N=C(/c2ccccc2)c2noc(=O)n2C)n1 [Example 353]	5.1 [a]
Cc1cccc(OCC(=O)Nc2nc(CO/N=C(/c3ccccc3)c3noc(=O)n3C)cs2)c1 [Example 356]	3.8 [a]
Cn1c(/C(=N\OCc2cccc(NC(=O)OCCc3cccc(Cl)c3)n2)c2ccccc2)noc1=O [Example 359]	4.51 [a]
Cc1ccc(C(=NOCc2csc(N(C)C=O)n2)c2noc(=O)n2C)cc1 [Example 360]	3.06 [a]
Cn1c(/C(=N\OCc2csc(NC(=O)COc3cccc(Cl)c3)n2)c2ccccc2)noc1=O [Example 368]	3.87 [a]
CCCCC(=O)Nc1nc(CO/N=C(/c2cccc(F)c2)c2noc(=O)n2C)cs1 [Example 370]	3.48 [a]
Cn1c(/C(=N\OCc2cccc(NC(=O)COc3cccc(Br)c3)n2)c2ccccc2)noc1=O [Example 382]	4.2 [a]
CCCCSC(=S)Nc1cccc(CO/N=C(/c2ccccc2)c2noc(=O)n2C)n1 [Example 385]	4.8 [a]
Cc1cccc(/C(=N/OCc2cccc(NC(=O)c3cccc(F)c3)n2)c2noc(=O)n2C)c1 [Example 391]	3.99 [a]
COc1ccc(C(=O)Nc2nc(CO/N=C(/c3ccccc3)c3noc(=O)n3C)cs2)cc1 [Example 393]	3.48 [a]
Cc1ccc(C2(C(=O)Nc3cccc(CO/N=C(/c4ccccc4)c4noc(=O)n4C)n3)CC2)cc1 [Example 397]	4.76 [a]
Cc1ccccc1OC(C)C(=O)Nc1cccc(CO/N=C(/c2ccccc2)c2noc(=O)n2C)n1 (stereo not shown) [Example 398]	4.46 [a]
COc1cccc(C(=NOCc2cccc(NC(=O)c3cccc(F)c3)n2)c2noc(=O)n2C)c1 [Example 399]	3.72 [a]
Cn1c(/C(=N\OCc2cccc(NC(=O)COc3ccc(Cl)cc3)n2)c2ccccc2)noc1=O [Example 402]	4.1 [a]
CCCCOC(=S)Nc1nc(CO/N=C(/c2ccccc2)c2noc(=O)n2C)cs1 [Example 410]	4.56 [a]
Cn1c(/C(=N/OCc2cccc(N)n2)c2cccc(F)c2F)noc1=O [Example 416]	1.26 [a]
Cn1c(/C(=N\OCc2cccc(NC(=O)OC3CCCCC3)n2)c2cccc(F)c2F)noc1=O [Example 417]	4.46 [a]
CCCCC(=O)Nc1cccc(CO/N=C(/c2cccc(F)c2F)c2noc(=O)n2C)n1 [Example 420]	3.55 [a]
Cn1c(/C(=N\OCc2csc(NC(=O)C3COc4ccccc4O3)n2)c2ccccc2Cl)noc1=O (stereo not shown) [Example 442]	3.73 [a]
CCCCCOC(=O)Nc1cccc(CO/N=C(/c2ccccc2F)c2noc(=O)n2C)n1 [Example 444]	4.34 [a]
CCCC(C)C(=O)Nc1cccc(CO/N=C(/c2ccccc2F)c2noc(=O)n2C)n1 (stereo not shown) [Example 449]	3.73 [a]
CC(C)(C)OC(=O)Nc1cccc(CON=C(c2noc(=O)[nH]2)c2cccc(F)c2F)n1 [Example 460]	3.76 [a]
CCCCCC(=O)Nc1cccc(CO/N=C(/c2cccc(F)c2F)c2noc(=O)n2C)n1 [Example 464]	3.92 [a]

Compound	LogP
CCCCC(=O)Nc1cccc(CO/N=C(/c2ccccc2F)c2noc(=O)n2C)n1 [Example 480]	3.44 [a]
CCCCC(=O)Nc1nc(CO/N=C(/c2ccccc2Cl)c2noc(=O)n2C)cs1 [Example 481]	3.53 [a]
CC(Oc1ccccc1)C(=O)Nc1nc(CON=C(c2ccccc2Cl)c2noc(=O)n2C)cs1 (stereo not shown) [Example 493]	3.81 [a]
C#CCCOC(=O)Nc1nc(CON=C(c2ccccc2Cl)c2noc(=O)n2C)cs1 [Example 499]	3.19 [a]
Cn1c(C(=NOCc2cccc(N)n2)c2cccc(F)c2F)noc1=O [Example 508]	1.34 [a]
Cn1c(C(=NOCc2cccc(N)n2)c2ccccc2F)noc1=O [Example 510]	1.23 [a]
CCCCSC(=S)Nc1nc(CON=C(c2ccccc2)c2noc(=O)n2C)cs1 [Example 512]	4.81 [a]
CCCCCC(=O)Nc1cccc(CO/N=C(/c2ccccc2F)c2noc(=O)n2C)n1 [Example 513]	3.81 [a]
CCCCOC(=O)Nc1nc(CO/N=C(/c2ccccc2Cl)c2noc(=O)n2C)cs1 [Example 519]	3.85 [a]
C#CCCOC(=O)Nc1cccc(CO/N=C(/c2ccccc2F)c2noc(=O)n2C)n1 [Example 525]	3.21 [a]
CCCCCOC(=O)Nc1nc(CO/N=C(/c2ccccc2Cl)c2noc(=O)n2C)cs1 [Example 530]	4.25 [a]
CCCCCC(=O)Nc1nc(CO/N=C(/c2ccccc2Cl)c2noc(=O)n2C)cs1 [Example 538]	3.89 [a]
Cn1c(/C(=N\OCc2csc(NC(=O)SC(C)(C)C)n2)c2ccccc2)noc1=O [Example 539]	4.04 [a]
Cn1c(/C(=N\OCc2csc(NC(=O)Cc3ccccc3)n2)c2ccccc2Cl)noc1=O [Example 543]	3.51 [a]
CCCCOC(=O)Nc1cccc(CO/N=C(/c2ccccc2F)c2noc(=O)n2C)n1 [Example 552]	3.92 [a]
CCCCCCN(C(=O)OC(C)(C)C)c1cccc(CO/N=C(/c2cccc(C)c2)c2noc(=O)n2C)n1 [compound 299]	6.57 [a]
Cn1c(/C(=N\OCc2cccc(NC(=O)OCCCC3CCCC3)n2)c2ccccc2)noc1=O [compound 408]	5.31 [a]
COc1ccccc1COC(=O)Nc1cccc(CO/N=C(/c2ccccc2)c2noc(=O)n2C)n1 [compound 409]	4.06 [a]
Cn1c(/C(=N\OCc2cccc(NC(=O)OCc3ccncc3)n2)c2ccccc2)noc1=O [compound 411]	2.01 [a]
Cn1c(/C(=N\OCc2cccc(NC(=O)OCC3(C)COC3)n2)c2ccccc2)noc1=O [compound 412]	2.96 [a]
Cn1c(/C(=N\OCc2cccc(NC(=O)OCc3ccccc3Cl)n2)c2ccccc2)noc1=O [compound 413]	4.34 [a]
CC#CCOC(=O)Nc1cccc(CO/N=C(/c2ccccc2)c2noc(=O)n2C)n1 [compound 414]	3.42 [a]
CCCCCC#CCOC(=O)Nc1cccc(CO/N=C(/c2ccccc2)c2noc(=O)n2C)n1 [compound 415]	4.86 [a]
CCCCC#CCOC(=O)Nc1cccc(CO/N=C(/c2ccccc2)c2noc(=O)n2C)n1 [compound 418]	4.51 [a]
